Patent US20230085307A1, “PYRIDAZINONE COMPOUND AND HERBICIDE” (NISSAN CHEMICAL CORPORATION, priority 2019, published 2023)

Columns and labels:
Chinese sprangletop = assay: Test Example 3: herbicidal effect by foliage application, Wagner pot (Table 18, symbol D); assay type: in vivo, chinese sprangletop (Leptochloa chinensis); conditions: 320 g/ha
Outline: (§1)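 Plants were sown in alluvial soil held under 0.1–0.5 cm standing water and grown 14 days in a greenhouse at 25–30 °C. An emulsifiable formulation, water-diluted to the set dose, was then sprayed onto the foliage, and effects were scored three weeks later using previously defined criteria.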

rice flat sedge = assay: Test Example 3: herbicidal effect by foliage application, Wagner pot (Table 18, symbol E); assay type: in vivo, rice flat sedge (Cyperus iria); conditions: 320 g/ha
Outline: as §1

southern crabgrass [1] = assay: Test Example 4: herbicidal effect by soil treatment (Table 19, symbol F); assay type: in vivo, southern crabgrass (Digitaria ciliaris); conditions: amount of applied herbicide 320 g/ha
Outline: (§2)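 Three weeks of greenhouse growth at 25° C. to 30° C. followed a uniform surface spray of water-diluted emulsion at a predetermined herbicide amount. Seeds had been sown beforehand under about 1.5 cm of sterilized diluvial soil. Grading followed criteria set out in an earlier test.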

green foxtail [2] = assay: Test Example 4: herbicidal effect by soil treatment (Table 19, symbol G); assay type: in vivo, green foxtail (Setaria viridis); conditions: amount of applied herbicide 320 g/ha
Outline: as §2

barnyard grass [3] = assay: Test Example 4: herbicidal effect by soil treatment (Table 19, symbol H); assay type: in vivo, barnyard grass (Echinochloa crus-galli); conditions: amount of applied herbicide 320 g/ha
Outline: as §2

wild oat [4] = assay: Test Example 4: herbicidal effect by soil treatment (Table 19, symbol I); assay type: in vivo, wild oat (Avena fatua); conditions: amount of applied herbicide 320 g/ha
Outline: as §2

blackgrass [5] = assay: Test Example 4: herbicidal effect by soil treatment (Table 19, symbol J); assay type: in vivo, blackgrass (Alopecurus myosuroides); conditions: amount of applied herbicide 320 g/ha
Outline: as §2

Italian ryegrass [6] = assay: Test Example 4: herbicidal effect by soil treatment (Table 19, symbol K); assay type: in vivo, Italian ryegrass (Lolium multiflorum); conditions: amount of applied herbicide 320 g/ha
Outline: as §2

windgrass [7] = assay: Test Example 4: herbicidal effect by soil treatment (Table 19, symbol L); assay type: in vivo, windgrass (Apera spica-venti); conditions: amount of applied herbicide 320 g/ha
Outline: as §2

velvetleaf [8] = assay: Test Example 4: herbicidal effect by soil treatment (Table 19, symbol M); assay type: in vivo, velvetleaf (Abutilon theophrasti); conditions: amount of applied herbicide 320 g/ha
Outline: as §2

redroot pigweed [9] = assay: Test Example 4: herbicidal effect by soil treatment (Table 19, symbol N); assay type: in vivo, redroot pigweed (Amaranthus retroflexus); conditions: amount of applied herbicide 320 g/ha
Outline: as §2

lambsquarters [10] = assay: Test Example 4: herbicidal effect by soil treatment (Table 19, symbol O); assay type: in vivo, lambsquarters (Chenopodium album); conditions: amount of applied herbicide 320 g/ha
Outline: as §2

chickweed = assay: Test Example 4: herbicidal effect by soil treatment (Table 19, symbol P); assay type: in vivo, common chickweed (Stellaria media); conditions: amount of applied herbicide 320 g/ha
Outline: as §2

persian speedwell [11] = assay: Test Example 4: herbicidal effect by soil treatment (Table 19, symbol R); assay type: in vivo, Persian speedwell (Veronica persica); conditions: amount of applied herbicide 320 g/ha
Outline: as §2

southern crabgrass [12] = assay: Test Example 5: herbicidal effect by foliage application, plastic box (Table 20, symbol F); assay type: in vivo, southern crabgrass (Digitaria ciliaris); conditions: 320 g/ha
Outline: (§3)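 Plants sown in sterilized diluvial soil and grown 14 days in a greenhouse at 25° C to 30° C, then sprayed on the foliage with the compound's emulsion diluted in water to a predetermined herbicide amount. Injury to weeds and crops scored three weeks after application on a visual rating scale.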

green foxtail [13] = assay: Test Example 5: herbicidal effect by foliage application, plastic box (Table 20, symbol G); assay type: in vivo, green foxtail (Setaria viridis); conditions: 320 g/ha
Outline: as §3

barnyard grass [14] = assay: Test Example 5: herbicidal effect by foliage application, plastic box (Table 20, symbol H); assay type: in vivo, barnyard grass (Echinochloa crus-galli); conditions: 320 g/ha
Outline: as §3

wild oat [15] = assay: Test Example 5: herbicidal effect by foliage application, plastic box (Table 20, symbol I); assay type: in vivo, wild oat (Avena fatua); conditions: 320 g/ha
Outline: as §3

blackgrass [16] = assay: Test Example 5: herbicidal effect by foliage application, plastic box (Table 20, symbol J); assay type: in vivo, blackgrass (Alopecurus myosuroides); conditions: 320 g/ha
Outline: as §3

Italian ryegrass [17] = assay: Test Example 5: herbicidal effect by foliage application, plastic box (Table 20, symbol K); assay type: in vivo, Italian ryegrass (Lolium multiflorum); conditions: 320 g/ha
Outline: as §3

windgrass [18] = assay: Test Example 5: herbicidal effect by foliage application, plastic box (Table 20, symbol L); assay type: in vivo, windgrass (Apera spica-venti); conditions: 320 g/ha
Outline: as §3

velvetleaf [19] = assay: Test Example 5: herbicidal effect by foliage application, plastic box (Table 20, symbol M); assay type: in vivo, velvetleaf (Abutilon theophrasti); conditions: 320 g/ha
Outline: as §3

redroot pigweed [20] = assay: Test Example 5: herbicidal effect by foliage application, plastic box (Table 20, symbol N); assay type: in vivo, redroot pigweed (Amaranthus retroflexus); conditions: 320 g/ha, foliage application after 14-day growth, evaluated three weeks after application
Outline: as §3

lambsquarters [21] = assay: Test Example 5: herbicidal effect by foliage application, plastic box (Table 20, symbol O); assay type: in vivo, lambsquarters (Chenopodium album); conditions: 320 g/ha
Outline: as §3

persian speedwell [22] = assay: Test Example 5: herbicidal effect by foliage application, plastic box (Table 20, symbol R); assay type: in vivo, Persian speedwell (Veronica persica); conditions: 320 g/ha
Outline: as §3

barnyard grass [23] = assay: Test Example 3: herbicidal effect by foliage application, Wagner pot (Table 18, symbol H); assay type: in vivo, barnyard grass (Echinochloa crus-galli); conditions: 320 g/ha
Outline: as §1

[24] = foliage application after 14-day growth, evaluated three weeks after application
[25] = foliage application, three weeks after application

For `CCOc1cccc(-c2sc3c(Cl)cccc3c2-c2c(O)c(C)nn(C)c2=O)c1` [4-066], which “herbicidal effect on Chinese sprangletop (D)” value (Chinese sprangletop) is on record?
Its value is 0 (Herbicidal rate of 5% or less (almost no effect)).

And the “herbicidal effect on rice flat sedge (E)” value (rice flat sedge)?
The value was 3 (Herbicidal rate of 40% or more and less than 70%).

And the “Herbicidal effect by soil treatment, F: southern crabgrass” value (southern crabgrass [1])?
The value was 0 (Herbicidal rate of 5% or less (almost no effect)).

And the “Herbicidal effect by soil treatment, G: green foxtail” value (green foxtail [2])?
Its value is 0 (Herbicidal rate of 5% or less (almost no effect)).

What about the “Herbicidal effect by soil treatment, H: barnyard grass” value (barnyard grass [3]) of the same compound?
Its value is 0 (Herbicidal rate of 5% or less (almost no effect)).

And the “Herbicidal effect by soil treatment, I: wild oat” value (wild oat [4])?
The value was 0 (Herbicidal rate of 5% or less (almost no effect)).

What about the “Herbicidal effect by soil treatment, J: blackgrass” value (blackgrass [5]) of the same compound?
The value was 0 (Herbicidal rate of 5% or less (almost no effect)).

And the “Herbicidal effect by soil treatment, K: Italian ryegrass” value (Italian ryegrass [6])?
The value was 0 (Herbicidal rate of 5% or less (almost no effect)).

And the “Herbicidal effect by soil treatment, L: windgrass” value (windgrass [7])?
Its value is 0 (Herbicidal rate of 5% or less (almost no effect)).

And the “Herbicidal effect by soil treatment, M: velvetleaf” value (velvetleaf [8])?
Its value is 0 (Herbicidal rate of 5% or less (almost no effect)).

What about the “Herbicidal effect by soil treatment, N: redroot pigweed” value (redroot pigweed [9]) of the same compound?
Its value is 0 (Herbicidal rate of 5% or less (almost no effect)).

And the “Herbicidal effect by soil treatment, O: lambsquarters” value (lambsquarters [10])?
Its value is 0 (Herbicidal rate of 5% or less (almost no effect)).

And the “Herbicidal effect by soil treatment, P: chickweed” value (chickweed)?
The value was 0 (Herbicidal rate of 5% or less (almost no effect)).

And the “Herbicidal effect by soil treatment, R: persian speedwell” value (persian speedwell [11])?
The value was 4 (Herbicidal rate of 70% or more and less than 90%).

And the “herbicidal effect on F: southern crabgrass (evaluation grade 0-5)” value (southern crabgrass [12]; [24])?
Its value is 0 (Herbicidal rate of 5% or less (almost no effect)).

What about the “herbicidal effect on G: green foxtail (evaluation grade 0-5)” value (green foxtail [13]; [24]) of the same compound?
The value was 1 (Herbicidal rate of 5% or more and less than 20%).

What about the “herbicidal effect on H: barnyard grass (evaluation grade 0-5)” value (barnyard grass [14]; [24]) of the same compound?
The value was 3 (Herbicidal rate of 40% or more and less than 70%).

What about the “herbicidal effect on I: wild oat (evaluation grade 0-5)” value (wild oat [15]; [24]) of the same compound?
Its value is 0 (Herbicidal rate of 5% or less (almost no effect)).

And the “herbicidal effect on J: blackgrass (evaluation grade 0-5)” value (blackgrass [16]; [24])?
Its value is 0 (Herbicidal rate of 5% or less (almost no effect)).

What about the “herbicidal effect on K: Italian ryegrass (evaluation grade 0-5)” value (Italian ryegrass [17]; [24]) of the same compound?
The value was 3 (Herbicidal rate of 40% or more and less than 70%).

And the “herbicidal effect on L: windgrass (evaluation grade 0-5)” value (windgrass [18]; [24])?
Its value is 0 (Herbicidal rate of 5% or less (almost no effect)).

What about the “herbicidal effect on M: velvetleaf (evaluation grade 0-5)” value (velvetleaf [19]; [24]) of the same compound?
Its value is 4 (Herbicidal rate of 70% or more and less than 90%).

And the “herbicidal effect on N: redroot pigweed (evaluation grade 0-5)” value (redroot pigweed [20])?
The value was 4 (Herbicidal rate of 70% or more and less than 90%).

And the “herbicidal effect on O: lambsquarters (evaluation grade 0-5)” value (lambsquarters [21]; [24])?
Its value is 3 (Herbicidal rate of 40% or more and less than 70%).

And the “herbicidal effect on R: persian speedwell (evaluation grade 0-5)” value (persian speedwell [22]; [24])?
Its value is 3 (Herbicidal rate of 40% or more and less than 70%).

What does the source list for `CCCC(=O)Oc1c(C)nn(C)c(=O)c1-c1c(-c2ccc(F)cc2OCC)sc2cc(Cl)c(Cl)cc12` [5-054]?
herbicidal effect on barnyard grass (H) (barnyard grass [23]): 4 (Herbicidal rate of 70% or more and less than 90%); herbicidal effect on Chinese sprangletop (D) (Chinese sprangletop): 2 (Herbicidal rate of 20% or more and less than 40%); herbicidal effect on rice flat sedge (E) (rice flat sedge): 5 (Herbicidal rate of 90% or more (almost completely withered)); F: southern crabgrass, herbicidal effect grade (southern crabgrass [1]): 0 (Herbicidal rate of 5% or less (almost no effect)); G: green foxtail, herbicidal effect grade (green foxtail [2]): 0 (Herbicidal rate of 5% or less (almost no effect)); H: barnyard grass, herbicidal effect grade (barnyard grass [3]): 0 (Herbicidal rate of 5% or less (almost no effect)); I: wild oat, herbicidal effect grade (wild oat [4]): 0 (Herbicidal rate of 5% or less (almost no effect)); J: blackgrass, herbicidal effect grade (blackgrass [5]): 0 (Herbicidal rate of 5% or less (almost no effect)); K: Italian ryegrass, herbicidal effect grade (Italian ryegrass [6]): 0 (Herbicidal rate of 5% or less (almost no effect)); L: windgrass, herbicidal effect grade (windgrass [7]): 0 (Herbicidal rate of 5% or less (almost no effect)); M: velvetleaf, herbicidal effect grade (velvetleaf [8]): 0 (Herbicidal rate of 5% or less (almost no effect)); N: redroot pigweed, herbicidal effect grade (redroot pigweed [9]): 0 (Herbicidal rate of 5% or less (almost no effect)); O: lambsquarters, herbicidal effect grade (lambsquarters [10]): 0 (Herbicidal rate of 5% or less (almost no effect)); P: chickweed, herbicidal effect grade (chickweed): 2 (Herbicidal rate of 20% or more and less than 40%); R: persian speedwell, herbicidal effect grade (persian speedwell [11]): 0 (Herbicidal rate of 5% or less (almost no effect)); herbicidal effect on southern crabgrass (F) (southern crabgrass [12]; [25]): 2 (Herbicidal rate of 20% or more and less than 40%); herbicidal effect on green foxtail (G) (green foxtail [13]; [25]): 2 (Herbicidal rate of 20% or more and less than 40%); herbicidal effect on barnyard grass (H) (barnyard grass [14]; [25]): 4 (Herbicidal rate of 70% or more and less than 90%); herbicidal effect on wild oat (I) (wild oat [15]; [25]): 0 (Herbicidal rate of 5% or less (almost no effect)); herbicidal effect on blackgrass (J) (blackgrass [16]; [25]): 0 (Herbicidal rate of 5% or less (almost no effect)); herbicidal effect on Italian ryegrass (K) (Italian ryegrass [17]; [25]): 0 (Herbicidal rate of 5% or less (almost no effect)); herbicidal effect on windgrass (L) (windgrass [18]; [25]): 1 (Herbicidal rate of 5% or more and less than 20%); herbicidal effect on velvetleaf (M) (velvetleaf [19]; [25]): 4 (Herbicidal rate of 70% or more and less than 90%); herbicidal effect on lambsquarters (O) (lambsquarters [21]; [25]): 3 (Herbicidal rate of 40% or more and less than 70%); herbicidal effect on persian speedwell (R) (persian speedwell [22]; [25]): 4 (Herbicidal rate of 70% or more and less than 90%)
